{"source": "patent US9539349B2", "about": "“Formulation, apparatus and method for stabilizing radiopharmaceuticals” (Siemens Medical Solutions USA, Inc., priority 2010, dated 2017)", "key": {"[1]": {"tested_on": "proximal renal tubes in kidneys", "details": "rat, in vivo"}, "[2]": {"experiment": "Excipient screen: protective factor (PF) for [F-18]FLT in argon sparged vials", "details": "in the absence of oxygen, in the presence of argon"}, "[3]": {"tested_on": "proximal renal tubes in kidneys", "details": "dog, in vivo"}, "[4]": {"experiment": "Radiochemical purity / percent stability of aged radiopharmaceutical solutions by radio-analytical HPLC", "details": "for % stability 2.25 hr: [F-18]BMS 747158-02 12 mCi/mL, 10 vol. % EtOH:water; for RCP % 1.5 hrs post dispensing / RCP % 4 hrs post dispensing: FLT; for % stability 4.0 hr: [F-18]FLT 126.3 mCi/mL (text: 103 mCi/mL); for % stability 5.5 hr: [F-18]FLT 127 mCi/mL; for % stability 3 hr: [F-18]HX4 16.2 mCi/mL"}, "[5]": {"experiment": "Hydrogen peroxide concentration by peroxide test strips", "type": "physicochemical"}}, "note": "Like-named read-outs stand apart in the source and are kept apart here."}
{"smiles": "O=C(O)/C=C\\C(=O)O", "note": "[Maleic acid]", "values": [{"measurement": "predicted human dose equivalent for renal effect", "setting": "[1]", "value": "approximately 12.3 mg/kg"}, {"measurement": "predicted human dose equivalent for renal effect, total dose", "setting": "[1]", "value": 855, "unit": "mg"}, {"measurement": "stabilization of [F-18]FLT against radiolysis", "setting": "[2]", "value": "highly stabilizing"}, {"measurement": "predicted human dose equivalent for renal effect", "setting": "[3]", "value": "approximately 15 mg/kg"}, {"measurement": "predicted human dose equivalent for renal effect, total dose", "setting": "[3]", "value": 1000, "unit": "mg"}]}
{"smiles": "CC(C)(C)n1ncc(OCc2ccc(COCC[18F])cc2)c(Cl)c1=O", "note": "[[F-18]BMS 747158-02]", "values": [{"measurement": "% stability 2.25 hr", "setting": "[4]; Air/O2 (before sparge)", "value": 91, "unit": "%"}, {"measurement": "% stability 2.25 hr", "setting": "[4]; Argon (reformulated after sparge)", "value": 12, "unit": "%"}]}
{"smiles": "Cc1cn([C@H]2C[C@H]([18F])[C@@H](CO)O2)c(=O)[nH]c1=O", "note": "[[F-18]FLT]", "values": [{"measurement": "hydrogen peroxide concentration", "setting": "[5]; FLT sample 126.3 mCi/mL, containing maleic acid (argon)", "value": 0, "unit": "ppm"}, {"measurement": "hydrogen peroxide concentration", "setting": "[5]; FLT sample 126.3 mCi/mL, headspace of argon", "value": 0, "unit": "ppm"}, {"measurement": "hydrogen peroxide concentration", "setting": "[5]; FLT sample 127 mCi/mL, headspace of oxygen", "value": 5, "unit": "ppm"}, {"measurement": "hydrogen peroxide concentration", "setting": "[5]; FLT sample 127 mCi/mL, headspace of oxygen and maleic acid", "value": "0.5-2.0 ppm"}, {"measurement": "stabilization by formulation", "setting": "[4]; 8 vol. % EtOH:92 vol. % sodium phosphate (21 mM, pH=4.0-7.0) containing 0.01% (g/ml) maleic acid", "value": "very efficient at stabilizing"}, {"measurement": "RCP % 1.5 hrs post dispensing", "setting": "[4]; Air-purged vial", "value": 100, "unit": "%"}, {"measurement": "RCP % 4 hrs post dispensing", "setting": "[4]; Air-purged vial", "value": 100, "unit": "%"}, {"measurement": "RCP % 1.5 hrs post dispensing", "setting": "[4]; Argon purged vial", "value": 62.5, "unit": "%"}, {"measurement": "RCP % 4 hrs post dispensing", "setting": "[4]; Argon purged vial", "value": 38.5, "unit": "%"}, {"measurement": "oxygen in finished product vial headspace at which FLT stability is improved", "setting": "[4]; Greer and Adelphi vials", "value": "> 10", "unit": "vol. %"}, {"measurement": "radiochemical purity", "setting": "[4]; [F-18]FLT 63.2 mCi/mL at EOS, dose vial sparged with Ar, after 1.5 hrs", "value": 62.5, "unit": "%"}, {"measurement": "radiochemical purity", "setting": "[4]; [F-18]FLT 63.2 mCi/mL at EOS, dose vial sparged with Ar, after 4.0 hrs", "value": 38.57, "unit": "%"}, {"measurement": "radiochemical integrity", "setting": "[4]; [F-18]FLT 63.2 mCi/mL at EOS, headspace of oxygen (syringe and sample vial), up to 4 hrs", "value": "remained radiochemically intact"}, {"measurement": "% stability 2 hr", "setting": "[4]; [F-18]FLT 82 mCi/mL, 8 vol. % EtOH:phosphate, 0.01% (g/ml) maleic acid + Air headspace, rt", "value": 100, "unit": "%"}, {"measurement": "% stability 3.25 hr", "setting": "[4]; [F-18]FLT 118.7 mCi/mL, 8 vol. % EtOH:phosphate, maleic acid + Ar headspace", "value": 37.9, "unit": "%"}, {"measurement": "% stability 4.0 hr", "setting": "[4]; 8 vol. % EtOH:phosphate, Ar, no maleic acid", "value": 1.5, "unit": "%"}, {"measurement": "% stability 4.0 hr", "setting": "[4]; 8 vol. % EtOH:phosphate, maleic acid (0.1 mg/mL) and Ar", "value": 88.7, "unit": "%"}, {"measurement": "% stability 5.5 hr", "setting": "[4]; 8 vol. % EtOH:phosphate, syringe sample, O2 (no headspace), no maleic acid", "value": 19.68, "unit": "%"}, {"measurement": "% stability 5.5 hr", "setting": "[4]; 8 vol. % EtOH:phosphate, syringe sample, maleic acid + O2 (no headspace)", "value": 97.13, "unit": "%"}, {"measurement": "% stability 5.5 hr", "setting": "[4]; 8 vol. % EtOH:phosphate, vial, Air headspace, no maleic acid", "value": "≥ 98", "unit": "%"}, {"measurement": "% stability 5.5 hr", "setting": "[4]; 8 vol. % EtOH:phosphate, vial, maleic acid + Air headspace (rt)", "value": "≥ 98", "unit": "%"}, {"measurement": "radiochemical integrity", "setting": "[4]; [F-18]FLT 129.5 mCi/mL at EOS, control dose vial with headspace of oxygen", "value": "remained radiochemically intact"}, {"measurement": "radiochemical integrity", "setting": "[4]; [F-18]FLT 129.5 mCi/mL at EOS, syringe with headspace of oxygen (20.95 vol. %)", "value": "remained radiochemically intact"}, {"measurement": "radiochemical purity", "setting": "[4]; [F-18]FLT 129.5 mCi/mL at EOS, syringe without headspace of oxygen, after 2.6 hrs", "value": 66.7, "unit": "%"}, {"measurement": "radiochemical purity", "setting": "[4]; [F-18]FLT 129.5 mCi/mL at EOS, syringe without headspace of oxygen, after 3.8 hrs", "value": 32.7, "unit": "%"}, {"measurement": "% stability 3.5 hr", "setting": "[4]; [F-18]FLT 197.1 mCi/mL, 8 vol. % EtOH:phosphate, dose vial, air/O2 only", "value": 82.6, "unit": "%"}, {"measurement": "stability (FIG. 2)", "setting": "[4]; in the presence of argon without maleic acid", "value": "decomposes"}, {"measurement": "stability (FIG. 1)", "setting": "[4]; in the presence of argon without oxygen", "value": "decomposes"}, {"measurement": "stability (FIG. 2)", "setting": "[4]; in the presence of maleic acid in argon", "value": "stabilized"}, {"measurement": "stability (FIG. 1)", "setting": "[4]; in the presence of oxygen", "value": "stabilized"}, {"measurement": "stability (FIG. 4)", "setting": "[4]; in the presence of oxygen and maleic acid", "value": "further stabilized"}, {"measurement": "stability (FIG. 4)", "setting": "[4]; in the presence of oxygen, once the oxygen is consumed", "value": "decomposes"}, {"measurement": "period of stability", "setting": "[4]; oxygen and maleic acid formulation, in some instances", "value": "about 18 hours"}, {"measurement": "strength up to which samples did not contain radiolyzed products", "setting": "[4]; samples spiked with O2", "value": "up to 197 mCi/mL"}]}
{"smiles": "O=[N+]([O-])c1nccn1Cc1cn(C(CO)C[18F])nn1", "note": "(centres unmarked) [[F-18]HX4]", "values": [{"measurement": "% stability 3 hr", "setting": "[4]; 8 vol. % EtOH:phosphate (text: 10 vol. % EtOH:water), maleic acid + Argon", "value": 8.66, "unit": "%"}, {"measurement": "% stability 3 hr", "setting": "[4]; 8 vol. % EtOH:phosphate (text: 10 vol. % EtOH:water), maleic acid + O2", "value": 98.9, "unit": "%"}, {"measurement": "% stability 3 hr", "setting": "[4]; 8 vol. % EtOH:phosphate, Air (O2)", "value": 94.06, "unit": "%"}, {"measurement": "% stability 3 hr", "setting": "[4]; 8 vol. % EtOH:phosphate, Argon", "value": 85.6, "unit": "%"}, {"measurement": "radiochemical integrity", "setting": "[4]; [F-18]HX4 in 10 vol. % EtOH:water, headspace of oxygen, up to 4 hrs", "value": "remained radiochemically intact"}, {"measurement": "radiochemical purity", "setting": "[4]; [F-18]HX4 in 10 vol. % EtOH:water, sparged with Ar, after 1 hrs", "value": 0.28, "unit": "%"}, {"measurement": "radiochemical purity", "setting": "[4]; [F-18]HX4 in 10 vol. % EtOH:water, sparged with Ar, after 4.0 hrs", "value": 0, "unit": "%"}]}
{"smiles": "CC(C)[C@@H](C(=O)N[C@@H](Cc1ccc(OCC[18F])cc1)C(=O)O)n1cc(COc2ccc3nc(S(N)(=O)=O)sc3c2)nn1", "note": "[[F-18]VM4-037]", "values": [{"measurement": "radiolytic stability", "setting": "[4]; oxygen introduced into the sample vials", "value": "not undergo radiolysis"}, {"measurement": "radiolytic stability", "setting": "[4]; stored under an atmosphere of He", "value": "susceptible to radiolytical decomposition"}]}
